7 compounds from patent US6544989B2, “Benzazoles: benzoxazole, benzthiazole and benzimidazole derivatives” (Syngenta Limited, priority 1998, dated 2003) can be followed below.

The test system of one data set is Plasmopara viticola. Kind of data set: Fungicidal test, Plasmopara viticola (PLASVI) on vines, PRCO. To be noted: METHOD 2 (unbanded). It is filed as in vivo.
In a further data set the test system is Septoria nodorum. Kind of data set: Fungicidal test, Septoria nodorum (LEPTNO) on wheat, PRCO. To be noted: METHOD 2 (unbanded). It is filed as in vivo.
For the next data set, the system named is Puccinia recondita. The data set is described as follows: Fungicidal test, Puccinia recondita (PUCCRT) on wheat, PRCO. As to conditions: METHOD 2 (unbanded). It is filed as in vivo.
In another data set the test system is Musca domestica. As to conditions: 500 ppm by weight; knockdown assessed 15 minutes after treatment.
The test system of a further data set is Rhizoctonia solani. The data set is described as follows: Fungicidal test, Rhizoctonia solani (RHIZSO) on rice, PRCO. It is filed as in vivo. As to conditions: METHOD 2 (unbanded).
A further data set deals with Meloidogyne incognita. Kind of data set: Nematode test, J2 infective juveniles of Meloidogyne incognita, mortality. To be noted: 12.5 ppm; J2 infective juveniles suspended in solution; mortality after three days.
Another data set has as its system Venturia inaequalis. The data set is described as follows: Fungicidal test, Venturia inaequalis (VENTIN) on apples, PRCO. As to conditions: METHOD 2 (unbanded). It is filed as in vivo.
A further data set deals with Uncinula necator. The data set is described as follows: Fungicidal test, Uncinula necator (UNCINE) on vines, PRCO. It is filed as in vivo. As to conditions: METHOD 2 (unbanded).
Data set [1] deals with Erysiphe graminis f.sp. tritici. The data set is described as follows: Fungicidal test, Erysiphe graminis f.sp. tritici (ERYSGT) on wheat, PRCO. It is filed as in vivo. To be noted: 1 d Prot/Foir; METHOD 2 (unbanded).
For another data set, the system named is Pyricularia oryzae. It counts as in vivo. As to conditions: METHOD 2 (unbanded).
In data set [2] the test system is Phytophthora infestans lycopersici. It is filed as in vivo. To be noted: METHOD 2 (unbanded).

`Cc1nsc(NC(=O)Cc2ccc3oc(C(C)C)nc3c2)c1Cl` [8(A3)]: in the data set with Plasmopara viticola, the “PLASVI 1 d Prot/Foir PRCO” value is given as 6. Besides, the “LEPTNO 1 d Prot/Foir PRCO” value in the data set with Septoria nodorum stood at 0. Further, the “PUCCRT 1 d Prot/Foir PRCO” value in the data set with Puccinia recondita was found to be 90. Also, in the data set on Musca domestica, the “MUSCDO AC = Musca domestica (knockdown), score” value (“MUSCDO AC = Musca domestica” below) is 9 (9 indicates 80-100% mortality). The “RHIZSO 1 d Prot/Foir PRCO” value with Rhizoctonia solani is 0. In addition, the “MELGIN = Meloidogyne incognita, grading of mortality (score)” value (“MELGIN = Meloidogyne incognita, grading” for short) in the data set on Meloidogyne incognita is 0 (0 indicates less than 40% mortality). Also, the “VENTIN 1 d Prot/Foir PRCO” value with Venturia inaequalis is given as 26. The “UNCINE 1 d Prot/Foir PRCO” value in the data set with Uncinula necator came out at 40. Also, the “ERYSGT 1 d Prot/Foir PRCO” value in [1] is 20.

In the case of `CC(C)=Cc1nc2cc(CC(=O)Nc3snc(C)c3Cl)ccc2o1` [46(A3)], the “PLASVI 1 d Prot/Foir PRCO” value in the data set on Plasmopara viticola amounted to 99. Also, in the data set on Septoria nodorum, the “LEPTNO 1 d Prot/Foir PRCO” value is 88. The “PUCCRT 1 d Prot/Foir PRCO” value with Puccinia recondita is 100. Further, the “MUSCDO AC = Musca domestica” value with Musca domestica is 5 (5 indicates 40-79% mortality). Besides, the “RHIZSO 1 d Prot/Foir PRCO” value in the data set on Rhizoctonia solani came out at 0. In the data set on Meloidogyne incognita, the “MELGIN = Meloidogyne incognita, grading” value is listed as 0 (0 indicates less than 40% mortality). Besides, the “VENTIN 1 d Prot/Foir PRCO” value in the data set with Venturia inaequalis amounted to 84. Besides, the “PYRIOR 1 d Prot/Foir PRCO” value in the data set on Pyricularia oryzae was 92. The “UNCINE 1 d Prot/Foir PRCO” value in the data set on Uncinula necator is recorded as 100. For the same compound, in [1], the “ERYSGT 1 d Prot/Foir PRCO” value is given as 97.

Regarding `Cc1nsc(NC(=O)Cc2ccc3oc(CC(C)C)nc3c2)c1Cl` [14(A3)], the “PLASVI 1 d Prot/Foir PRCO” value in the data set with Plasmopara viticola is reported as 89. The “LEPTNO 1 d Prot/Foir PRCO” value with Septoria nodorum is 28. Further, in the data set with Puccinia recondita, the “PUCCRT 1 d Prot/Foir PRCO” value is given as 97. Besides, the “MUSCDO AC = Musca domestica” value in the data set with Musca domestica was 9 (9 indicates 80-100% mortality). Also, the “RHIZSO 1 d Prot/Foir PRCO” value in the data set with Rhizoctonia solani is 12. Further, in the data set with Meloidogyne incognita, the “MELGIN = Meloidogyne incognita, grading” value is on record as 0 (0 indicates less than 40% mortality). The “VENTIN 1 d Prot/Foir PRCO” value with Venturia inaequalis turned out to be 10. The “PYRIOR 1 d Prot/Foir PRCO” value in the data set on Pyricularia oryzae came out at 90. Besides, the “UNCINE 1 d Prot/Foir PRCO” value in the data set with Uncinula necator came to 98. The “ERYSGT 1 d Prot/Foir PRCO” value in [1] is listed as 90. For the same compound, the “PHYTIN 1 d Prot/Foir PRCO” value in data set [2] is recorded as 100.

For `CC=C(C)c1nc2cc(CC(=O)Nc3snc(C)c3Cl)ccc2o1` [47(A3)], the “PLASVI 1 d Prot/Foir PRCO” value with Plasmopara viticola amounted to 92. In the data set with Septoria nodorum, the “LEPTNO 1 d Prot/Foir PRCO” value stood at 63. Further, the “PUCCRT 1 d Prot/Foir PRCO” value with Puccinia recondita is 99. Also, the “MUSCDO AC = Musca domestica” value with Musca domestica is given as 0 (0 indicates less than 40% mortality). In addition, the “RHIZSO 1 d Prot/Foir PRCO” value in the data set on Rhizoctonia solani was determined as 0. For the same compound, in the data set with Meloidogyne incognita, the “MELGIN = Meloidogyne incognita, grading” value was 0 (0 indicates less than 40% mortality). The “VENTIN 1 d Prot/Foir PRCO” value in the data set on Venturia inaequalis came to 37. Also, the “PYRIOR 1 d Prot/Foir PRCO” value with Pyricularia oryzae was determined as 88. The “UNCINE 1 d Prot/Foir PRCO” value in the data set with Uncinula necator is recorded as 98. Also, the “ERYSGT 1 d Prot/Foir PRCO” value in data set [1] is given as 86.

Turning to `Cc1nsc(NC(=O)Cc2ccc3nc(CC(C)(C)C)oc3c2)c1Cl` [15(A23)], the “LEPTNO 1 d Prot/Foir PRCO” value in the data set with Septoria nodorum is listed as 83. In addition, the “PUCCRT 1 d Prot/Foir PRCO” value with Puccinia recondita is reported as 98. Besides, the “MUSCDO AC = Musca domestica” value in the data set with Musca domestica is 0 (0 indicates less than 40% mortality). For the same compound, the “RHIZSO 1 d Prot/Foir PRCO” value in the data set with Rhizoctonia solani is on record as 0. The “MELGIN = Meloidogyne incognita, grading” value in the data set with Meloidogyne incognita was 0 (0 indicates less than 40% mortality). Further, the “VENTIN 1 d Prot/Foir PRCO” value in the data set on Venturia inaequalis came to 100. Further, the “PYRIOR 1 d Prot/Foir PRCO” value in the data set with Pyricularia oryzae was found to be 80. For the same compound, the “UNCINE 1 d Prot/Foir PRCO” value in the data set with Uncinula necator is 100. For the same compound, the “ERYSGT 1 d Prot/Foir PRCO” value in [1] worked out at 62. The “PHYTIN 1 d Prot/Foir PRCO” value in data set [2] is listed as 100.

As for `Cc1nsc(NC(=S)Cc2ccc3oc(CC(C)(C)C)nc3c2)c1Cl` [15(V3)], the “LEPTNO 1 d Prot/Foir PRCO” value in the data set with Septoria nodorum is given as −2. For the same compound, the “PUCCRT 1 d Prot/Foir PRCO” value in the data set on Puccinia recondita is on record as 100. Also, the “MUSCDO AC = Musca domestica” value in the data set with Musca domestica is given as 0 (0 indicates less than 40% mortality). Also, the “RHIZSO 1 d Prot/Foir PRCO” value with Rhizoctonia solani worked out at 0. In the data set on Meloidogyne incognita, the “MELGIN = Meloidogyne incognita, grading” value is 0 (0 indicates less than 40% mortality). In addition, the “VENTIN 1 d Prot/Foir PRCO” value with Venturia inaequalis is recorded as 10. The “PYRIOR 1 d Prot/Foir PRCO” value in the data set on Pyricularia oryzae came out at 100. The “UNCINE 1 d Prot/Foir PRCO” value in the data set with Uncinula necator is recorded as 100. In addition, the “ERYSGT 1 d Prot/Foir PRCO” value in data set [1] was found to be 87. Further, the “PHYTIN 1 d Prot/Foir PRCO” value in data set [2] was found to be 100.

Turning to `Cc1nsc(NC(=O)Cc2ccc3oc(-c4ccc(C(C)(C)C)cc4)nc3c2)c1Cl` [252(A3)], the “PLASVI 1 d Prot/Foir PRCO” value in the data set with Plasmopara viticola worked out at 38. Moreover, the “LEPTNO 1 d Prot/Foir PRCO” value in the data set on Septoria nodorum was −13. Further, in the data set on Puccinia recondita, the “PUCCRT 1 d Prot/Foir PRCO” value is recorded as 97. For the same compound, the “MUSCDO AC = Musca domestica” value with Musca domestica was 0 (0 indicates less than 40% mortality). Also, the “RHIZSO 1 d Prot/Foir PRCO” value with Rhizoctonia solani is 0. Besides, the “MELGIN = Meloidogyne incognita, grading” value in the data set with Meloidogyne incognita is recorded as 0 (0 indicates less than 40% mortality). Moreover, in the data set on Venturia inaequalis, the “VENTIN 1 d Prot/Foir PRCO” value is recorded as −47. In addition, the “PYRIOR 1 d Prot/Foir PRCO” value in the data set with Pyricularia oryzae was 46. The “UNCINE 1 d Prot/Foir PRCO” value in the data set on Uncinula necator was found to be 79. The “ERYSGT 1 d Prot/Foir PRCO” value in data set [1] turned out to be 30.
